Test results: US20240349724A1, “ANTIMICROBIAL COMPOSITIONS EFFECTIVE AGAINST BACTERIA AND FUNGUS” (TerMir Inc., priority 2017, published 2024)
In brackets after ≈: the same amount, converted by molar mass. Several values for one entry are separate records, joined by “and”; a condition that tells them apart may be missing. Identical values can stand only once. Like-named read-outs stand apart in the source and are kept apart here.

Legend:
[1] = test system: Candida albicans ATCC 10231; experiment: Yeast microplate MIC (visible growth); assay type: cell-based; settings: for Reduced PhlB: fraction of PhlB dosage
Procedure: Yeast: Culture Candida on Sabouraud Dextrose Agar (SDA) at 35±1° C. for 24-48 hours until colonies are approximately 2-3 mm in diameter. Suspend ˜5 colonies in 5 mL of sterile 0.8-0.9% saline solution. Vortex for 15 seconds. Adjust the cell density to that of a 0.5 McFarland Equivalence Turbidity Standard. Prepare adjusted inoculum: Dilute the cell suspension 1:2000 in RPMI 1640. Inoculate microplates by adding 100 μL to each applicable well.
(§1) During the Candida adjusted inoculum preparation, saline cell suspensions with optical densities equal to that of a 0.5 McFarland Equivalence Turbidity Standard were diluted 1:1000 in RPMI 1640, rather than 1:2000 as instructed in CLSI M27-A3. Alternaria was cultured at 30±1° C. for 7 days or until good sporulation was obtained.
(§2) Data Analysis/Reporting: Read microplates for visible growth (turbidity). Use the minimum inhibitory concentration (MIC).

[2] = test system: Altemaria alternata ATCC 66981; experiment: Mold microplate MIC (visible growth); assay type: cell-based, Alternaria alternata; settings: for Reduced PhlB: fraction of PhlB dosage
Procedure: (§3) Mold: Culture Curvularia and Aspergillus on SDA at 35±1° C. for 7 days or until good sporulation is obtained. Culture Alternaria at 30±1° C. for 7 days or until good sporulation is obtained. Harvest sporulating colonies with 0.8-0.9% saline solution and transfer to a fresh tube. Allow heavy particles to settle for 5 minutes and transfer the upper homogeneous suspension to a sterile tube and mix via vortex for 15 seconds. Read and adjust the optical density to OD (530 nm): • Alternaria: 0.25-0.30 • Aspergillus: 0.09-0.13 • Curvularia: 0.25-0.30
as §1, §2

[3] = test system: Ralstonia insidiosa ATCC 49129; experiment: microbe, parasite or virus in culture; assay type: cell-based; settings: for Reduced PhlB: fraction of PhlB dosage
Procedure: (§4) Tests are conducted according to the 2015 Clinical and Laboratory Standards Institute Method M07-A10: Methods for dilution antimicrobial susceptibility tests for bacteria that grow aerobically. Sterile 96-well microplates are prepared with Meuller Hinton Broth containing varying amounts of test compounds in each well (100 μL per well). Then according to the CLSI M07-A10 microdilution assay, a row with a 2-fold serial dilution series with 10 different concentrations of the test compound are prepared along with three replicate rows for each combination of test organism and test compound. According to the CLSI M07-A10 microdilution combination (checkerboard) assay, an 8×8 well matrix containing two 2-fold serial dilution series of two test compounds arranged perpendicular to one another so that each concentration of compound 1 is prepared once with each combination of compound 2. One column with a 2-fold serial dilution series with 8 different concentrations of test compound 1 is prepared along with one column with a 2-fold serial dilution series with 8 different concentrations of test compound 2. One microplate for each combination of test organism and pair of test compounds is prepared in addition to a cell suspension of each test microorganism equivalent to a 0.5 McFarland turbidity standard using fresh isolated colonies grown on Meuller Hinton Agar. Each cell suspension is diluted in a 1:20 ratio in Meuller Hinton Broth and the microplate is inoculated by adding add 10 μL to each well. Microplates then incubate according to CLSI M07-A10.
(§5) Microplates are read and data was interpreted according to the following procedure: The minimum inhibitory concentration (MIC) is the minimum concentration of the test compound needed to cease growth of the organism, it encompasses microbe death as well as microbe loss of the ability to divide and grow. Supplemental light was used during the 24-hour incubation period. Light intensity ranged from 1259 and 4203 lux.

[4] = test system: Aspergillus niger ATCC 6275; experiment: Mold microplate MIC (visible growth); assay type: cell-based; settings: for Reduced PhlB: fraction of PhlB dosage
Procedure: as §3, §2

[5] = test system: Stenotrophomonos maltophilia ATCC 13637; experiment: CLSI M07-A10 microdilution / checkerboard MIC; assay type: cell-based, Stenotrophomonas maltophilia; settings: for Reduced PhlB: fraction of PhlB dosage
Procedure: as §4, §5

[6] = test system: Rhizobium radiobacter ATCC 70069; experiment: CLSI M07-A10 microdilution / checkerboard MIC; assay type: cell-based; settings: for Reduced PhlB: fraction of PhlB dosage; for MIC: Agrobacterium radiobacter, ATCC70069, 24 h, read-out: MIC at 24 hours in Light, Fluorescein, R. radiobacter
Procedure: as §4, §5

[7] = test system: Bacillus subtilis ATCC 15841; experiment: CLSI M07-A10 microdilution / checkerboard MIC; assay type: cell-based; settings: for Reduced PhlB: fraction of PhlB dosage
Procedure: as §4, §5

Gram(+) bacteria = settings: background statement; cited from earlier work
[8] = test system: Curvularia lunata ATCC 12017; experiment: Mold microplate MIC (visible growth); assay type: cell-based; settings: for Reduced PhlB: fraction of PhlB dosage
Procedure: as §3, §2

Gram(−) bacteria = settings: PhlB on its own; background statement; cited from earlier work
[9] = C. albicans, alone ('Trial' line)
[10] = A. alternata, alone ('Trial' line)
[11] = R. insidiosa, alone ('Trial' line)
[12] = S. maltophilia, alone ('Trial' line)
[13] = R. radiobacter, alone ('Trial' line)
[14] = B. subtilis, alone ('Trial' line)

N.N.O=S(=O)(O)O [Ammonium sulfate, ammonium sulfate]
MIC at 24 hours in Light, Ammonium sulfate [1, 9]: 750000 µM
MIC at 24 hours in Light, Ammonium sulfate [2, 10]: 46874 µM
MIC at 24 hours in Light, Ammonium sulfate [3, 11]: 750000 µM
MIC at 24 hours in Light, Ammonium sulfate ([4]; A. niger, alone ('Trial' line)): 93749 µM
MIC at 24 hours in Light, Ammonium sulfate [5, 12]: 375000 µM
MIC at 24 hours in Light, Ammonium sulfate [6, 13]: 93800 µM
MIC at 24 hours in Light, Ammonium sulfate [7, 14]: 93800 µM

O=C1OC2(c3cc(Br)c([O-])c(Br)c3Oc3c2cc(Br)c([O-])c3Br)c2c(Cl)c(Cl)c(Cl)c(Cl)c21.[Na+].[Na+] [PHL B, disodium salt of 2′,4′,5′,7′-tetrabromo-4,5,6,7-tetrachlorofluorescein]
control of Gram(+) bacteria (Gram(+) bacteria): control Gram(+) bacteria at millimolar to micromolar concentrations
MIC at 24 hours in Light, PHL B [1, 9]: 125 µM and 125.36 µM and 62.68 µM
Reduced PhlB ([1]; C. albicans, with Ammonium sulfate): 1/125 and 1/64 and 1/32 and 1/16 and ⅛ and ¼ and ½
Reduced PhlB ([1]; C. albicans, with Fluorescein): 1/64 and 1/32 and 1/16 and ⅛ and ¼ and ½
Reduced PhlB ([1]; C. albicans, with NaTetraBorate): 1/128 and 1/64 and 1/32 and 1/16 and ⅛ and ¼ and ½
MIC at 24 hours in Light, PHL B [2, 10]: 1.93 µM and 3.62 µM
Reduced PhlB ([2]; A. alternata, with Ammonium sulfate): ¼ and ½
Reduced PhlB ([2]; A. alternata, with Fluorescein): ¼
Reduced PhlB ([2]; A. alternata, with NaTetraBorate): ½
Reduced PhlB ([3]; R. insidiosa, with Fluorescein): ⅛ and ¼ and ½ and 1/16
Reduced PhlB ([3]; R. insidiosa, with NaTetraBorate): ⅛ and ¼ and ½
MIC at 24 hours in Light, PHL B ([4]; A. niger, alone ('Trial' line)): 1.93 µM and 3.62 µM
Reduced PhlB ([4]; A. niger, with Ammonium sulfate): ¼ and ½
Reduced PhlB ([4]; A. niger, with Fluorescein): ½
Reduced PhlB ([4]; A. niger, with NaTetraBorate): ½
Reduced PhlB ([8]; C. lunata, with Ammonium sulfate): ⅛ and ¼ and ½
Reduced PhlB ([8]; C. lunata, with Fluorescein): ¼ and ½
Reduced PhlB ([8]; C. lunata, with NaTetraBorate): ¼ and ½
control of Gram(−) bacteria (Gram(−) bacteria): does not control Gram(−) bacteria
Reduced PhlB ([5]; S. maltophilia, with Fluorescein): ⅛ and ¼ and ½ and 1/16
Reduced PhlB ([5]; S. maltophilia, with NaTetraBorate): ⅛ and ¼ and ½
MIC at 24 hours in Light, PHL B [6, 13]: 0.12 µM and 0.24 µM
Reduced PhlB ([6]; R. radiobacter, with Fluorescein): ¼ and ½ and ⅛
Reduced PhlB ([6]; R. radiobacter, with NaTetraBorate): ¼ and ½
MIC at 24 hours in Light, PHL B [7, 14]: 0.98 µM and 0.49 µM
Reduced PhlB ([7]; B. subtilis, with Fluorescein): ⅛ and ¼ and ½ and 1/16
Reduced PhlB ([7]; B. subtilis, with NaTetraBorate): 3/98 and 3/49 and ⅛ and ¼ and ½

[Na+].[Na+].[O-]B1OB2OB([O-])OB(O1)O2 [NaTetraBorate, sodium tetraborate]
MIC at 24 hours in Light, NaTetraBorate [1, 9]: 9999 µM
MIC at 24 hours in Light, NaTetraBorate [2, 10]: 625160 µM
MIC at 24 hours in Light, NaTetraBorate [3, 11]: 10000 µM
MIC at 24 hours in Light, NaTetraBorate ([4]; A. niger, alone ('Trial' line)): 2673 µM
MIC at 24 hours in Light, NaTetraBorate ([8]; C. lunata, alone ('Trial' line)): 4999.50 µM
MIC at 24 hours in Light, NaTetraBorate [5, 12]: 5000 µM
MIC at 24 hours in Light, NaTetraBorate [6, 13]: 2500 µM
MIC at 24 hours in Light, NaTetraBorate [7, 14]: 10000 µM

O=C1OC2(c3ccc(O)cc3Oc3cc(O)ccc32)c2ccccc21 [Fluorescein, 3′,6′-dihydroxyspiro[2-benzofuran-3,9′-xanthene]-1-one]
MIC ([1]; Candida albicans, ATCC10231, 24 h, read-out: MIC at 24 hours in Light, Fluorescein, C. albicans, alone ('Trial' line)): 2000 µM (≈ 665 µg/mL)
MIC ([2]; Alternaria alternata, ATCC66981, 24 h, read-out: MIC at 24 hours in Light, Fluorescein, A. alternata, alone ('Trial' line)): 15.7 µM (≈ 5.21 µg/mL)
MIC ([3]; Ralstonia insidiosa, ATCC49129, 24 h, read-out: MIC at 24 hours in Light, Fluorescein, R. insidiosa, alone ('Trial' line)): 7.8 µM
MIC ([4]; Aspergillus niger, ATCC6275, 24 h, read-out: MIC at 24 hours in Light, Fluorescein, A. niger, alone ('Trial' line)): 1.86 µM (≈ 0.618 µg/mL)
MIC ([8]; Curvularia lunata, ATCC12017, 24 h, read-out: MIC at 24 hours in Light, Fluorescein, C. lunata, alone ('Trial' line)): 15.7 µM (≈ 5.21 µg/mL)
MIC ([5]; Stenotrophomonas maltophilia, ATCC13637, 24 h, read-out: MIC at 24 hours in Light, Fluorescein, S. maltophilia, alone ('Trial' line)): 7.8 µM
MIC ([6]; alone ('Trial' line)): 0.98 µM
MIC ([6]; combined with PHL B (c2 of same line)): 0.49 µM
MIC ([7]; Bacillus subtilis, ATCC15841, 24 h, read-out: MIC at 24 hours in Light, Fluorescein, B. subtilis, alone ('Trial' line)): 62.5 µM
